Results from ChEMBL document CHEMBL1201862, “PubChem BioAssay data set” (2004).
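Interpolation was linear, between the two tested concentrations surrounding the appropriate level; five concentrations were tested over 48 hours in 96-well plates. At the GI50, growth is halved.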 Calls of active or inactive are those of the source. Rule as the data show it: active = GI50 up to about 1.1 µM and inactive = higher.

Assays:
Experiment in all cases: inhibition of tumour cell growth, NCI panel, 48 h
SF-268 = test system: SF-268
UACC-62 = test system: UACC-62
KM12 = test system: KM12
NCI-H23 = test system: NCI-H23
RXF 393 = test system: RXF 393
HCT-116 = test system: HCT-116
OVCAR-4 = test system: OVCAR-4
M19-MEL = test system: M19-MEL
SF-539 = test system: SF-539
UACC-257 = test system: UACC-257
NCI-H522 = test system: NCI-H522
NCI-H226 = test system: NCI-H226
SK-OV-3 = test system: SK-OV-3
OVCAR-8 = test system: OVCAR-8
HOP-18 = test system: HOP-18
Malme-3M = test system: Malme-3M
CCRF-CEM = test system: CCRF-CEM
SR = test system: SR
K562 = test system: K562
SK-MEL-28 = test system: SK-MEL-28
KM-20L2 = test system: KM-20L2
A549 = test system: A549
ACHN = test system: ACHN
OVCAR-3 = test system: OVCAR-3
IGROV-1 = test system: IGROV-1
M14 = test system: M14
SK-MEL-5 = test system: SK-MEL-5
U-251 = test system: U-251
SK-MEL-2 = test system: SK-MEL-2
786-0 = test system: 786-0
HOP-92 = test system: HOP-92
OVCAR-5 = test system: OVCAR-5
DLD-1 = test system: DLD-1
EKVX = test system: EKVX
HCT-15 = test system: HCT-15
HCC 2998 = test system: HCC 2998
RPMI-8226 = test system: RPMI-8226
SNB-75 = test system: SNB-75
A498 = test system: A498
XF498 = test system: XF498
UO-31 = test system: UO-31
DMS-114 = test system: DMS-114
SN12C = test system: SN12C
MOLT-4 = test system: MOLT-4
NCI-H460 = test system: NCI-H460
HOP-62 = test system: HOP-62
LOX IMVI = test system: LOX IMVI
SF-295 = test system: SF-295
CAKI-1 = test system: CAKI-1
LXFL 529 = test system: LXFL 529
HL-60 = test system: HL-60
TK-10 = test system: TK-10
DMS-273 = test system: DMS-273
HT-29 = test system: HT-29
SW-620 = test system: SW-620
SNB-19 = test system: SNB-19
SNB-78 = test system: SNB-78
COLO 205 = test system: COLO 205

Measured: GI50

O=c1c([Se]c2coc3ccccc3c2=O)coc2ccccc12
inactive: SF-268 19.5 µM | UACC-62 17.1 µM | KM12 11.3 µM | NCI-H23 15.6 µM | RXF 393 15.9 µM | HCT-116 3.8 µM | OVCAR-4 16.9 µM | M19-MEL 15.3 µM | SF-539 11.9 µM | UACC-257 17.4 µM | NCI-H522 18.4 µM | NCI-H226 14.1 µM | SK-OV-3 16.2 µM | OVCAR-8 12.7 µM | HOP-18 15.7 µM | Malme-3M 17.8 µM | CCRF-CEM 18.1 µM | SR 4.72 µM | K562 34.1 µM | SK-MEL-28 17.1 µM | KM-20L2 12 µM | A549 6.3 µM | ACHN 18.2 µM | OVCAR-3 18 µM | IGROV-1 10.5 µM | M14 14.9 µM | SK-MEL-5 16.3 µM | U-251 7.13 µM | SK-MEL-2 18.2 µM | 786-0 18.5 µM | HOP-92 17.6 µM | OVCAR-5 16.2 µM | DLD-1 18.2 µM | EKVX 18.7 µM | HCC 2998 17.7 µM | RPMI-8226 22.8 µM | SNB-75 15.6 µM | A498 19.1 µM | XF498 16.8 µM | UO-31 13.5 µM | DMS-114 17.5 µM | SN12C 15 µM | MOLT-4 9.18 µM | NCI-H460 3.65 µM | HOP-62 4.89 µM | LOX IMVI 16 µM | SF-295 2.76 µM | CAKI-1 20 µM | LXFL 529 15.4 µM | HL-60 23 µM | TK-10 17.7 µM | DMS-273 11 µM | HT-29 17.1 µM | SW-620 19 µM | SNB-19 14 µM | SNB-78 19.9 µM | COLO 205 16.2 µM
16.9 µM: HCT-15

CC[P+](C)(C)c1ccccc1
inactive: SF-268 > 100 µM | UACC-62 > 100 µM | KM12 > 100 µM | NCI-H23 > 100 µM | RXF 393 > 100 µM | OVCAR-4 99.3 µM | M19-MEL > 100 µM | SF-539 > 100 µM | UACC-257 > 100 µM | SK-OV-3 > 100 µM | OVCAR-8 > 100 µM | HOP-18 5 µM | Malme-3M > 100 µM | CCRF-CEM > 100 µM | K562 > 100 µM | SK-MEL-28 > 100 µM | KM-20L2 > 100 µM | A549 > 100 µM | ACHN > 100 µM | OVCAR-3 > 100 µM | IGROV-1 > 100 µM | M14 > 100 µM | SK-MEL-5 > 100 µM | U-251 > 100 µM | SK-MEL-2 > 100 µM | 786-0 > 100 µM | OVCAR-5 > 100 µM | DLD-1 > 100 µM | EKVX > 100 µM | HCC 2998 > 100 µM | RPMI-8226 > 100 µM | SNB-75 > 100 µM | A498 > 100 µM | XF498 > 100 µM | UO-31 > 100 µM | DMS-114 > 100 µM | SN12C > 100 µM | MOLT-4 > 100 µM | NCI-H460 > 100 µM | HOP-62 > 100 µM | LOX IMVI > 100 µM | SF-295 > 100 µM | CAKI-1 > 100 µM | LXFL 529 > 100 µM | TK-10 > 100 µM | DMS-273 > 100 µM | HT-29 > 100 µM | SW-620 > 100 µM | SNB-19 > 100 µM | SNB-78 58.1 µM | COLO 205 > 100 µM
> 100 µM: HCT-15

C/C=C/C(C#N)O[Si](C)(C)C (stereo not drawn)
> 100 µM: HCT-15
inactive: SF-268 > 100 µM | UACC-62 > 100 µM | KM12 > 100 µM | NCI-H23 > 100 µM | RXF 393 > 100 µM | HCT-116 > 100 µM | OVCAR-4 > 100 µM | M19-MEL > 100 µM | SF-539 > 100 µM | UACC-257 > 100 µM | NCI-H522 > 100 µM | NCI-H226 > 100 µM | SK-OV-3 > 100 µM | OVCAR-8 > 100 µM | HOP-18 > 100 µM | Malme-3M > 100 µM | SK-MEL-28 > 100 µM | KM-20L2 > 100 µM | A549 > 100 µM | ACHN > 100 µM | OVCAR-3 > 100 µM | IGROV-1 > 100 µM | M14 > 100 µM | SK-MEL-5 > 100 µM | U-251 > 100 µM | SK-MEL-2 > 100 µM | 786-0 > 100 µM | HOP-92 > 100 µM | OVCAR-5 > 100 µM | DLD-1 > 100 µM | EKVX > 100 µM | HCC 2998 > 100 µM | SNB-75 > 100 µM | A498 > 100 µM | XF498 > 100 µM | UO-31 > 100 µM | DMS-114 > 100 µM | SN12C > 100 µM | MOLT-4 > 100 µM | NCI-H460 > 100 µM | HOP-62 > 100 µM | SF-295 > 100 µM | CAKI-1 > 100 µM | LXFL 529 > 100 µM | HL-60 > 100 µM | TK-10 > 100 µM | DMS-273 > 100 µM | HT-29 > 100 µM | SW-620 > 100 µM | SNB-19 > 100 µM | SNB-78 > 100 µM | COLO 205 > 100 µM
